Measurements published in patent US8680012B2, “4-phenyl-pyrane-3,5-diones,4-phenyl-thiopyrane-3,6-diones and cyclohexanetriones as novel herbicides” (Syngenta Crop Protection LLC, priority 2006, dated 2014).

system: Avena fatua (AVEFA); experiment: Example A post-emergence herbicidal activity, glasshouse pot test; format: in vivo; conditions: 360 h, rate 125 g/ha, evaluated 15 days after spraying, read-out: Post-emergence activity AVEFA (100=total damage to plant; 0=no damage to plant)
Experimental: (§1) Seeds of a variety of test species were sown in standard soil in pots. After cultivation for one day (pre-emergence) or after 10 days cultivation (post-emergence) under controlled conditions in a glasshouse, the plants were sprayed with an aqueous spray solution derived from the formulation of the technical active ingredient in 0.6 ml acetone and 45 ml formulation solution containing 10.6% Emulsogen EL (Registry number 61791-12-6), 42.2% N-methylpyrrolidone, 42.2% dipropylene glycol monomethyl ether (Registry number 34590-94-8) and 0.2% X-77 (Registry number 11097-66-8). The test plants were then grown in a greenhouse under optimum conditions until, 15 days later for post-emergence and 20 days for pre-emergence, the test was evaluated (100=total damage to plant; 0=no damage to plant).
(§2) Alopecurus myosuroides (ALOMY), Avena fatua (AVEFA), Lolium perenne (LOLPE), Setaria faberi (SETFA), Digitaria sanguinalis (DIGSA), Echinochloa crus-galli (ECHCG)

| SMILES | pest or weed control at 125 g/ha [%] |
| --- | --- |
| CCc1ccc(-c2ccc(Cl)cc2Cl)cc1C1=C(O)C(C)(C)OC(C)(C)C1=O [Compound A-45] | 70 |
| Cc1ccc(-c2ccc(Cl)c(F)c2)cc1C1=C(O)C(C)(C)OC(C)(C)C1=O [Compound A-47] | 90 |
| Cc1ccc(-c2ccc(Cl)c(Cl)c2)cc1C1=C(O)C(C)(C)OC(C)(C)C1=O [Compound A-48] | 40 |

system: Lolium perenne (LOLPE); experiment: as above; format: in vivo; conditions: 360 h, rate 125 g/ha, evaluated 15 days after spraying, read-out: Post-emergence activity LOLPE (100=total damage to plant; 0=no damage to plant)
Experimental: as §1, §2

| SMILES | pest or weed control at 125 g/ha [%] |
| --- | --- |
| CCc1ccc(-c2ccc(Cl)cc2Cl)cc1C1=C(O)C(C)(C)OC(C)(C)C1=O [Compound A-45] | 70 |
| Cc1ccc(-c2ccc(Cl)c(F)c2)cc1C1=C(O)C(C)(C)OC(C)(C)C1=O [Compound A-47] | 70 |
| Cc1ccc(-c2ccc(Cl)c(Cl)c2)cc1C1=C(O)C(C)(C)OC(C)(C)C1=O [Compound A-48] | 0 |

system: Digitaria sanguinalis (DIGSA); experiment: as above; format: in vivo; conditions: 360 h, rate 125 g/ha, evaluated 15 days after spraying, read-out: Post-emergence activity DIGSA (100=total damage to plant; 0=no damage to plant)
Experimental: as §1, §2

| SMILES | pest or weed control at 125 g/ha [%] |
| --- | --- |
| CCc1ccc(-c2ccc(Cl)cc2Cl)cc1C1=C(O)C(C)(C)OC(C)(C)C1=O [Compound A-45] | 100 |
| Cc1ccc(-c2ccc(Cl)c(F)c2)cc1C1=C(O)C(C)(C)OC(C)(C)C1=O [Compound A-47] | 80 |
| Cc1ccc(-c2ccc(Cl)c(Cl)c2)cc1C1=C(O)C(C)(C)OC(C)(C)C1=O [Compound A-48] | 40 |

system: Echinochloa crus-galli (ECHCG); experiment: as above; format: in vivo; conditions: 360 h, rate 125 g/ha, evaluated 15 days after spraying, read-out: Post-emergence activity ECHCG (100=total damage to plant; 0=no damage to plant)
Experimental: as §1, §2

| SMILES | pest or weed control at 125 g/ha [%] |
| --- | --- |
| CCc1ccc(-c2ccc(Cl)cc2Cl)cc1C1=C(O)C(C)(C)OC(C)(C)C1=O [Compound A-45] | 100 |
| Cc1ccc(-c2ccc(Cl)c(F)c2)cc1C1=C(O)C(C)(C)OC(C)(C)C1=O [Compound A-47] | 100 |
| Cc1ccc(-c2ccc(Cl)c(Cl)c2)cc1C1=C(O)C(C)(C)OC(C)(C)C1=O [Compound A-48] | 40 |

system: Alopecurus myosuroides (ALOMY); experiment: as above; format: in vivo; conditions: 360 h, rate 125 g/ha, evaluated 15 days after spraying, read-out: Post-emergence activity ALOMY (100=total damage to plant; 0=no damage to plant)
Experimental: as §1, §2

| SMILES | pest or weed control at 125 g/ha [%] |
| --- | --- |
| CCc1ccc(-c2ccc(Cl)cc2Cl)cc1C1=C(O)C(C)(C)OC(C)(C)C1=O [Compound A-45] | 20 |
| Cc1ccc(-c2ccc(Cl)c(F)c2)cc1C1=C(O)C(C)(C)OC(C)(C)C1=O [Compound A-47] | 90 |
| Cc1ccc(-c2ccc(Cl)c(Cl)c2)cc1C1=C(O)C(C)(C)OC(C)(C)C1=O [Compound A-48] | 70 |

system: Setaria faberi (SETFA); experiment: as above; format: in vivo; conditions: 360 h, rate 125 g/ha, evaluated 15 days after spraying, read-out: Post-emergence activity SETFA (100=total damage to plant; 0=no damage to plant)
Experimental: as §1, §2

| SMILES | pest or weed control at 125 g/ha [%] |
| --- | --- |
| CCc1ccc(-c2ccc(Cl)cc2Cl)cc1C1=C(O)C(C)(C)OC(C)(C)C1=O [Compound A-45] | 80 |
| Cc1ccc(-c2ccc(Cl)c(F)c2)cc1C1=C(O)C(C)(C)OC(C)(C)C1=O [Compound A-47] | 50 |
| Cc1ccc(-c2ccc(Cl)c(Cl)c2)cc1C1=C(O)C(C)(C)OC(C)(C)C1=O [Compound A-48] | 40 |

system: Avena fatua (AVEFA); experiment: Example A pre-emergence herbicidal activity, glasshouse pot test; format: in vivo; conditions: 480 h, rate 250 g/ha, evaluated 20 days after spraying, read-out: Pre-emergence activity AVEFA (100=total damage to plant; 0=no damage to plant)
Experimental: as §1, §2

| SMILES | pest or weed control at 250 g/ha [%] |
| --- | --- |
| CCc1ccc(-c2ccc(Cl)cc2Cl)cc1C1=C(O)C(C)(C)OC(C)(C)C1=O [Compound A-45] | 50 |
| Cc1ccc(-c2ccc(Cl)c(F)c2)cc1C1=C(O)C(C)(C)OC(C)(C)C1=O [Compound A-47] | 20 |
| Cc1ccc(-c2ccc(Cl)c(Cl)c2)cc1C1=C(O)C(C)(C)OC(C)(C)C1=O [Compound A-48] | 10 |

system: Lolium perenne (LOLPE); experiment: as above; format: in vivo; conditions: 480 h, rate 250 g/ha, evaluated 20 days after spraying, read-out: Pre-emergence activity LOLPE (100=total damage to plant; 0=no damage to plant)
Experimental: as §1, §2

| SMILES | pest or weed control at 250 g/ha [%] |
| --- | --- |
| CCc1ccc(-c2ccc(Cl)cc2Cl)cc1C1=C(O)C(C)(C)OC(C)(C)C1=O [Compound A-45] | 80 |
| Cc1ccc(-c2ccc(Cl)c(F)c2)cc1C1=C(O)C(C)(C)OC(C)(C)C1=O [Compound A-47] | 30 |
| Cc1ccc(-c2ccc(Cl)c(Cl)c2)cc1C1=C(O)C(C)(C)OC(C)(C)C1=O [Compound A-48] | 0 |

system: Digitaria sanguinalis (DIGSA); experiment: as above; format: in vivo; conditions: 480 h, rate 250 g/ha, evaluated 20 days after spraying, read-out: Pre-emergence activity DIGSA (100=total damage to plant; 0=no damage to plant)
Experimental: as §1, §2

| SMILES | pest or weed control at 250 g/ha [%] |
| --- | --- |
| CCc1ccc(-c2ccc(Cl)cc2Cl)cc1C1=C(O)C(C)(C)OC(C)(C)C1=O [Compound A-45] | 100 |
| Cc1ccc(-c2ccc(Cl)c(F)c2)cc1C1=C(O)C(C)(C)OC(C)(C)C1=O [Compound A-47] | 70 |
| Cc1ccc(-c2ccc(Cl)c(Cl)c2)cc1C1=C(O)C(C)(C)OC(C)(C)C1=O [Compound A-48] | 60 |

system: Echinochloa crus-galli (ECHCG); experiment: as above; format: in vivo; conditions: 480 h, rate 250 g/ha, evaluated 20 days after spraying, read-out: Pre-emergence activity ECHCG (100=total damage to plant; 0=no damage to plant)
Experimental: as §1, §2

| SMILES | pest or weed control at 250 g/ha [%] |
| --- | --- |
| CCc1ccc(-c2ccc(Cl)cc2Cl)cc1C1=C(O)C(C)(C)OC(C)(C)C1=O [Compound A-45] | 70 |
| Cc1ccc(-c2ccc(Cl)c(F)c2)cc1C1=C(O)C(C)(C)OC(C)(C)C1=O [Compound A-47] | 70 |
| Cc1ccc(-c2ccc(Cl)c(Cl)c2)cc1C1=C(O)C(C)(C)OC(C)(C)C1=O [Compound A-48] | 100 |

system: Alopecurus myosuroides (ALOMY); experiment: as above; format: in vivo; conditions: 480 h, rate 250 g/ha, evaluated 20 days after spraying, read-out: Pre-emergence activity ALOMY (100=total damage to plant; 0=no damage to plant)
Experimental: as §1, §2

| SMILES | pest or weed control at 250 g/ha [%] |
| --- | --- |
| CCc1ccc(-c2ccc(Cl)cc2Cl)cc1C1=C(O)C(C)(C)OC(C)(C)C1=O [Compound A-45] | 50 |
| Cc1ccc(-c2ccc(Cl)c(F)c2)cc1C1=C(O)C(C)(C)OC(C)(C)C1=O [Compound A-47] | 30 |
| Cc1ccc(-c2ccc(Cl)c(Cl)c2)cc1C1=C(O)C(C)(C)OC(C)(C)C1=O [Compound A-48] | 30 |

system: Setaria faberi (SETFA); experiment: as above; format: in vivo; conditions: 480 h, rate 250 g/ha, evaluated 20 days after spraying, read-out: Pre-emergence activity SETFA (100=total damage to plant; 0=no damage to plant)
Experimental: as §1, §2

| SMILES | pest or weed control at 250 g/ha [%] |
| --- | --- |
| CCc1ccc(-c2ccc(Cl)cc2Cl)cc1C1=C(O)C(C)(C)OC(C)(C)C1=O [Compound A-45] | 90 |
| Cc1ccc(-c2ccc(Cl)c(F)c2)cc1C1=C(O)C(C)(C)OC(C)(C)C1=O [Compound A-47] | 60 |
| Cc1ccc(-c2ccc(Cl)c(Cl)c2)cc1C1=C(O)C(C)(C)OC(C)(C)C1=O [Compound A-48] | 60 |
